# Laboratory results as given in publication PMC10315697, “Evaluation of ^134Ce/^134La as a PET Imaging Theranostic Pair for ^225Ac α-Radiotherapeutics” (Journal of Nuclear Medicine, 2023).
# Tests used:
# [1] = design: method as in PMID 34190542; conditions: for nonradioactive cerium ref 14; cited from earlier work
# [2] = Ex vivo biodistribution of free and chelated ^134Ce/^225Ac in healthy mice; conditions: healthy wild-type C57BL/6 mice, tail vein injection, 1 h for ^134Ce
Structure (SMILES),stability (KLnL) [1],bone uptake [2],liver uptake [2],blood uptake [2],kidney uptake [2]
O=C(O)c1cccc(CN2CCOCCOCCN(Cc3cccc(C(=O)O)n3)CCOCCOCC2)n1 [MACROPA],15.1,,,,
[Cl][134Ce]([Cl])[Cl] [^134CeCl3],,15.54 ± 2.69 %ID/g,71.5 ± 4.3 %ID/g,,
O=C([O-])CN1CCN(CC(=O)[O-])CCN(CC(=O)[O-])CCN(CC(=O)[O-])CC1.[225Ac+3] [^225Ac-DOTA],,2.26 ± 0.56 %ID/g,0.28 ± 0.008 %ID/g,0.23 ± 0.02 %ID/g,3.07 ± 0.99 %ID/g
[225Ac+3].[Cl-].[Cl-].[Cl-] [^225AcCl3],,29.56 ± 2.40 %ID/g,38.33 ± 6.75 %ID/g,,
